# Values of other authors, collected in patent US20260144769A1, “4-PHENYLBUTYRATE RESTORED GABA UPTAKE AND REDUCED SEIZURES IN SLC6A1 VARIANT-MEDIATED DISORDERS” (Vanderbilt University, priority 2022, published 2026).
# Conditions: SLC6A1 mutation mediated disorders; cited from earlier work
structure (smiles),measurement,value
CCCC(CCC)C(=O)O [Valproic acid],cognition,could not improve cognition
same,seizure control,control seizures
